# Legend:
# [1] = system: P-gp-expressing Cell Lines; test: Modulation of P-gp-mediated drug resistance in vitro (panel statements); type: cell-based, human
# Procedure: The compound of Formula 2 was able to reverse resistance to all classes of P-gp substrates in a wide variety of tumor cell types with EC50s in the low nM range (Table 2). Similar results were obtained with etoposide in several models. Complete reversal of MDR was typically seen with Formula 2 doses between 0.25 and 1.0 μM. Examples with cells expressing extremely high levels of P-gp as a result of drug selection (CEM/VLB1000), moderate levels of P-gp from gene transduction (MDA/LCC6 ^MDR1), and low (intrinsic) levels of P-gp (HCT-15) are illustrated in Table 2. The compound of Formula 2 had no effect on doxorubicin or paclitaxel IC50s in non-P-gp-expressing CCRF-CEM and MDA/LCC6 cells, respectively (FIG. 1, for MDA/LCC6 cells).
# Cell proliferation IC50s and MDR reversal EC50s were determined from 3-day dose-response curves carried out in triplicate in 96-well plates essentially as described by Monks et al. (J. Natl. Cancer Inst., 83:757-66, 1991). Cells were plated in standard growth medium at 2.5 or 5.0×10^4 per well (CCRF-CEM and CEM/VLB1000 respectively) or 5×10^3 per well (all other cell lines) in a final volume of 100 μl. After a 2 h incubation for non-adherent cells and overnight incubation for adherent cells, the initial cell density was determined by fluorescence readout of Alamar Blue metabolism. […] Final cell density was determined with Alamar Blue. […]
# SW620 = test: Cell proliferation assay; type: cell-based; conditions: Homo sapiens, SW-620; Colorectal carcinoma SW620, P-gp Neg; read-out: Formula 2 compound IC50 (inhibition of growth)
# Procedure: (§1) Cell proliferation IC50s and MDR reversal EC50s were determined from 3-day dose-response curves carried out in triplicate in 96-well plates essentially as described by Monks et al. (J. Natl. Cancer Inst., 83:757-66, 1991). Cells were plated in standard growth medium at 2.5 or 5.0×10^4 per well (CCRF-CEM and CEM/VLB1000 respectively) or 5×10^3 per well (all other cell lines) in a final volume of 100 μl. After a 2 h incubation for non-adherent cells and overnight incubation for adherent cells, the initial cell density was determined by fluorescence readout of Alamar Blue metabolism. The compound of Formula 2, cytotoxic agents, or compound vehicles were added to duplicate plates and the incubation was continued for an additional 72 h. Final cell density was determined with Alamar Blue. In some experiments, a standard endpoint assay was used without analysis of initial cell density with Alamar Blue. Similar results were obtained with the two assays. EC50s were derived by nonlinear regression analysis assuming a sigmoidal dose-response using GraphPad Prism Software (San Diego, Calif.). Proliferation assays capable of measuring both cytostatic and cytotoxic responses were carried out as described herein with 15 non-transformed and transformed cell lines, including primary fibroblasts, non-transformed smooth muscle, leukemia, breast, colon, ovarian and uterine carcinoma cells (±P-gp expression). Although the compound of Formula 2 reversed P-gp-mediated MDR in the low nanomolar concentration range, the compound was non-cytotoxic by itself at doses up to 100 μM in all cell lines. […] IC50s for non-specific cytotoxicity were similar in matched cell lines plus and minus P-gp expression. […] If it were, some consistent degree of resistance would be expected in P-gp expressing cells.
# HT-29 = test: Cell proliferation assay; type: cell-based; conditions: Homo sapiens; Colorectal carcinoma HT-29, P-gp Neg; read-out: Formula 2 compound IC50 (inhibition of growth)
# Procedure: as §1
# MDA/LCC6 = test: Cell proliferation assay; type: cell-based; conditions: Homo sapiens, LCC-6; Breast carcinoma MDA/LCC6, P-gp Neg; read-out: Formula 2 compound IC50 (inhibition of growth)
# Procedure: as §1
# MES-SA = test: Cell proliferation assay; type: cell-based; conditions: Homo sapiens; Uterine carcinoma MES-SA, P-gp Neg; read-out: Formula 2 compound IC50 (inhibition of growth)
# Procedure: as §1
# SKOV3 = test: Cell proliferation assay; type: cell-based; conditions: Homo sapiens, SK-OV-3; Ovarian carcinoma SKOV3, P-gp Neg; read-out: Formula 2 compound IC50 (inhibition of growth)
# Procedure: as §1
# HISM = test: Cell proliferation assay; type: cell-based; conditions: Homo sapiens; Smooth muscle HISM; read-out: Formula 2 compound IC50 (inhibition of growth)
# Procedure: as §1
# MCF-7/ADR = test: Cell proliferation assay; type: cell-based; conditions: Homo sapiens, NCI/ADR-RES; Breast carcinoma MCF-7/ADR, P-gp Pos; read-out: Formula 2 compound IC50 (inhibition of growth)
# Procedure: as §1
# CEM/VLB1000 = test: Cell proliferation assay; type: cell-based; conditions: Homo sapiens; Lymphoma CEM/VLB1000, P-gp Pos; read-out: Formula 2 compound IC50 (inhibition of growth)
# Procedure: as §1
# SK/VLB1000 = test: Cell proliferation assay; type: cell-based; conditions: Homo sapiens; Ovarian carcinoma SK/VLB1000, P-gp Pos; read-out: Formula 2 compound IC50 (inhibition of growth)
# Procedure: as §1
# [2] = Blood-brain barrier penetration of loperamide, mouse hot-plate test; type: in vivo, mice
# Excerpt: These increases were dose dependent with respect to loperamide.
compound,measurement,setting,value
CCOC/C=C/c1ccc(-c2nc(-c3ccc(NC(C)C)cc3)c(-c3ccc(NC(C)C)cc3)[nH]2)cc1 [Formula 2 compound],MDR reversal potency after incubation in human plasma,[1]; human plasma,retained full MDR reversal potency
same,EC50s for reversal of resistance to all classes of P-gp substrates,[1]; wide variety of tumor cell types,low nM range
same,IC50,SW620,> 100 µM
same,IC50,HT-29,12 µM
same,IC50,MDA/LCC6,> 100 µM
same,IC50,MES-SA,51 µM
same,IC50,SKOV3,48 µM
same,IC50,HISM,> 100 µM
same,IC50,MCF-7/ADR,68 µM
same,IC50,CEM/VLB1000,32 µM
same,IC50,SK/VLB1000,15 µM
same,Effect on hot-plate escape time,"[2]; co-administration with loperamide, either 20 mg or 40 mg, dose dependent with respect to loperamide",significant increases
same,Mean time to escape the hot-plate,[2]; in the absence of loperamide,20 s
